Laboratory results published in US20260207604A1, “COMPOUND AND USE THEREOF” (ONQUALITY PHARMACEUTICALS CHINA LTD., priority 2022, published 2026).
Read-outs that look alike come from different tables or passages of the source.

Assays:
[1] = Intestinal tissue distribution study following a single oral administration in rats; type: in vivo, Sprague Dawley rats; settings: male rats, single oral 25 mg/kg; for Kp: read-out: Tissue-to-plasma concentration ratio
Method: Nine male Sprague Dawley rats were orally administered Compound 1 at a dose of 25 mg/kg with a dosing volume of 10 mL/kg using purified water as the vehicle. At 0.25, 2, and 6 hours post-dosing, three animals were euthanized at each time point. A 200 μL whole blood sample was collected via cardiac puncture and plasma was separated by centrifugation.
The duodenum, jejunum, ileum, and colon were collected, contents removed, rinsed with ice-cold water, and surface moisture was blotted with filter paper before weighing. For each gram of tissue, 5 mL of methanol-water (1:3, v/v) was added for homogenization. The drug concentrations in plasma and intestinal tissue homogenates of each intestinal segment tissue were measured using LC-MS/MS.

[2] = Single-dose intravenous and oral pharmacokinetic study in rats; type: in vivo, Sprague-Dawley (SD) rats; settings: male SD rats
Method: Six male Sprague-Dawley (SD) rats were randomly divided into two groups, with three rats in each group. Compound 1 was administered either by intravenous injection at a dose of 2 mg/kg or by oral gavage at a dose of 10 mg/kg. The dosing volumes were 5 mL/kg for intravenous administration and 10 mL/kg for oral administration, with purified water used as the solvent. For the intravenous group, blood samples were collected at 0.083, 0.25, 0.5, 1, 2, 4, 6, 8, and 24 hours post-dose. For the oral group, blood samples were collected at 0.25, 0.5, 1, 2, 4, 6, 8, and 24 hours post-dose. Plasma samples were prepared by centrifugation and stored at −70° C. The plasma concentration of Compound 1 was determined using LC-MS/MS.

[3] = Sprague-Dawley, rat, IV 2 mg/kg, plasma

Compound: CC(=O)c1c(C)c2c(n(C3CCCC3)c1=O)=NC(Nc1ccc(N3CCN(S(=O)(=O)NCCN)CC3)cn1)NC=2 (centres unmarked) [Compound 1]
- Kp ([1]; Sprague Dawley, rat, Colon, ratio of AUC values): 502
- Kp ([1]; Sprague Dawley, rat, Ileum, ratio of AUC values): 4750
- Kp ([1]; Sprague Dawley, rat, Jejunum, ratio of AUC values): 4300
- AUC(0-t) ([1]; Sprague Dawley, rat, Plasma, read-out: AUC0-t): 1.26 ng·h/mL
- AUC(0-t) ([1]; Colon): 632 ng·h/g
- AUC(0-t) ([1]; Duodenum): 19300 ng·h/g
- Tissue-to-plasma concentration ratio ([1]; Duodenum, ratio of AUC values): 15300
- AUC(0-t) ([1]; Ileum): 5980 ng·h/g
- AUC(0-t) ([1]; Jejunum): 5420 ng·h/g
- AUC(0-t) [2, 3]: 602 ± 161 ng·h/mL
- clearance [2, 3]: 56.7 ± 17.3 mL/min/kg
- half-life [2, 3]: 5.55 ± 0.503 h
- Vd ([2]; Sprague-Dawley, rat, IV 2 mg/kg, plasma, read-out: Vdss): 9.61 ± 5.43 L/kg
- plasma concentrations following oral administration ([2]; PO 10 mg/kg, all samples 0.25-24 h, below the lower limit of quantification): < 1 ng/mL
